Values of other authors in patent US20210008096A1, “SUPPRESSION OR REDUCTION OF THE PAT[…] VIRULENCE OF A C[…]” (Da Volterra, priority 2015, published 2021).

Tested on: Clostridium difficile
Settings: following treatment of CDAD; 15% vs 25%

CCc1c(Cl)c(O)c(Cl)c(O)c1C(=O)O[C@H]1[C@H](O)[C@H](OC)[C@H](OC/C2=C\C=C\C[C@H](O)/C(C)=C/[C@H](CC)[C@@H](O[C@@H]3OC(C)(C)[C@@H](OC(=O)C(C)C)[C@H](O)[C@@H]3O)/C(C)=C/C(C)=C/C[C@@H]([C@@H](C)O)OC2=O)O[C@@H]1C [fidaxomycin, fidaxomicin]
rate of recurrence: 15%
